Source: patent publication US20140228435A1, “COMPOSITION AND METHOD OF SYNTHESIZING A BIOMOLECULE AND ITS THERAPEUTICS APPLICATIONS” (priority 2013, published 2014)
Several values for one entry are separate records, joined by “and”; a condition that tells them apart may be missing. Equal entries are not always repeated. Where two headings read alike, the source gives them in different places.

Legend:
[1] = biosynthetic GH, comparison; cited from earlier work
eye's central vision = assay: Eye's central vision examined with the E-chart, one-year volunteer trial; format: in vivo, human volunteers; parameters: scale not given here; conditions: one value per volunteer
Protocol: (§1) According to an embodiment of the embodiments herein, N(omega)′-protonated L-arginine was chemically converted into J-Factor ex-vivo. To prevent synthetic J-factor from damaging the alimentary canal after oral administration, it was formulated at a pH value that is safe for the canal like 7.0 which is the safest pH. Then, converted/synthetic produced ex-vivo J-Factor was orally administrated to a small group of 11 volunteers for one year. Each volunteers were given 0.5 mg per 10 days (=1.5 mg/month) and photographs were taken in each case to record the changes in their faces and heads.
(§2) In addition, to eliminate other factors probably influencing results during the trial, they were prevented from exercising and changing previous food schedule such as meat except the J-Factor. Their intake of meat was at least 200 gram per day in the food schedule before the trial and wouldn't change during the trial. Because the amount of N(omega)′-protonated L-arginine in raw meat is more than 1%, their intake of N(omega)′-protonated L-arginine was more than 60000 mg per month through meat without change before and during the trial, which was more than 40000 times the J-Factor intake. Anyway, one-third of N (omega)′-protonated L-arginine is chemically converted into J-Factor and they can't separated from each other. Thus, regardless of food L-arginine, Each volunteer took N(omega)′-protonated L-arginine 3 mg per month together with J-Factor that was less than 1/20000 times the N(omega)′-protonated L-arginine intake through meat without change before and during the trial. Therefore, the physical changes observed in the volunteers weren't caused by N(omega)′-protonated L-arginine.
Eye' central vision was examined with the E-chart and the following numbers were measured and concluded: […]

[2] = cited from earlier work
[3] = tested on: muscle (muscular hypertrophy); assay: Mid-upper arm circumference (MUAC) and muscle circumference (MUAMC), muscular hypertrophy, one-year volunteer trial; format: in vivo, human volunteers
Protocol: as §1, §2
It's derived in cm from the MUAC (mid-upper arm circumference) in cm and the TSF (triceps skin fold) in mm according to the formula “MUAMC=MUAC−(π×TSF/10)”. Finally, the following numbers were measured and concluded: […]

[4] = Acid dissociation constants (pKa), with van't Hoff temperature calculation; format: physicochemical
Protocol: Furthermore, the deprotonation of the guanidinium and N(delta)-protonated diaminomethyleneamino groups is endothermic and reversible. Therefore the results are as follows. • 1—At pH less than 7.48 together with 25° C. or less, the concentration of their deprotonated form in the side chain is too little and insignificant to be chemically considered. • 2—Under physiological conditions (pH 7.40 and 37° C.) of a living body, the concentration of L-2-amino-5-diaminomethyleneamino-pentanoic acid not protonated in the side chain and a extremely weak stimulator for autocrine-paracrine IGF-1, is too little and insignificant to stimulates synthesis and secretion of the IGF-1. • 3—At pH less than 7.48 together with 25° C. or less and under physiological conditions (pH 7.40 and 37° C.), 1-arginine and L-2-amino-5-diaminomethyleneamino-pentanoic acid is practically as protonated in the side chain.
In addition, it has a Pka of 8.39 in the protonated 2-amino group at 37° C. calculated based on the integrated form of the van't Hoff equation and ΔH°=43.8 kj/mol=[…] in the deprotonation of the protonated 2-amino group. Consequently, with respect to/regarding the Henderson-Hasselbalch equation, the formula of the J Factor is as follows: • 1—At 25° C., the dominant structural formula of J-Factor at pH more than 2.17 and less than 9.04 is as follows:
Further, in the conversion of N(omega)′-protonated L-arginine to Larginine and a proton, K (equilibrium constant)=Ka (acid dissociation constant). Consequently, the integrated form of the van't Hoff equation is changed as follows:
Log(Ka2/Ka1)=(ΔH°/R)(1/T1−1/T2)
wherein Ka1 is the acid dissociation constant at absolute temperature T1, Ka2 is the acid dissociation constant at absolute temperature T2. Now, the calculated ratios of Ka2 at 100° C., 75° C., 50° C., 37° C. and 30° C. to Ka1 at 25° C. and their pKa's in the conversion are given below, where pKa is a minus the logarithm of the acid dissociation constant. • 1—At 100° C.: […]

[5] = Physical changes observed in volunteers after one year (photographs of faces and heads); format: in vivo, human volunteers; conditions: each volunteer after one year of oral J-Factor
Protocol: as §1, §2

fatty tissue = assay: Triceps skin fold (TSF) thickness by caliper at right mid-upper arm, one-year volunteer trial; format: in vivo, human volunteers
Protocol: as §1, §2
Anyway, the triceps skin fold (TSF) thickness was measured in millimetres with the caplier at the mid-back of the right mid-upper arm [mid-point between the tip of the shoulder and the tip of the elbow (olecranon process and the acromium)] to evaluate the change in fatty tissue during the trial. The amounts measured and calculated are listed below: […]

[6] = Complications and safety, synthetic J-Factor in the 11 volunteers compared with biosynthetic GH; format: in vivo, human volunteers
Protocol: as §1
In fact, all of the above mentioned changes help in preventing or limiting the aging signs. The advantage of using ex-vivo synthesized J-Factor of the embodiments herein when compared to biosynthetic GH is shown in the comparative table below: […]

IGF-1mRNA = assay: Expression of IGF-1mRNA in fatty tissue of mid-upper arm by real-time RT-PCR; format: in vivo, human volunteers
Protocol: as §1
as §2, with “Therefore, the physical changes observed in the volunteers weren't caused by N(omega)′-protonated L-arginine.” left out
It's clear that any composition that stimulates the synthesis and secretion of autocrine-paracrine IGF-1 performs it only through increasing the expression of IGF-1mRNA in the cell. Therefore, the expression of IGF-1mRNA was measured in the fatty tissue at the mid-back of the mid-upperarm of the volunteers by real-time RT-PCR (Reverse transcription-polymerase chain reaction) at the beginning and end of the trial and the following numbers were obtained: […]

[7] = Second trial (second year): J-Factor withdrawn, unconverted N(omega)′-protonated L-arginine given; format: in vivo, human volunteers; conditions: 1.5 mg per 10 days
Protocol: After the first year, the applicant withdrew J-Factor and would give the initial N(omega)′protonated L-arginine (reactant) not converted to J-Factor 1.5 mg per 10 days to each volunteer without any other changes and wouldn't make them aware, in order to better compare the reactant and J-Factor.

[8] = Start to End (one year), one value per volunteer
[9] = sum of 11 volunteers, Start to End

Biosynthetic GH: biosynthetic growth hormone, comparator in the advantage table
antigenicity [1]: Antigenic
complications [1]: Joint swelling Carpal tunnel
diabetogenicity [1]: Diabetogenic

NC(N)=NCCCC(N)C(=O)O [J-Factor, N(delta)-protonated L-2-amino-5-diaminomethyleneamino-pentanoic acid]
Left Eye' central vision increase (eye's central vision; Start to End (one year)): ZERO (2×) and 1 (4×) and 9 and 3 (2×) and 2 (2×)
Right Eye' central vision increase (eye's central vision; Start to End (one year)): ZERO (3×) and 1 (2×) and 3 and 2 (4×) and 4
Left Eye' central vision End (eye's central vision; one year after the start): 10 (8×) and 9 and 3 and 5
Right Eye' central vision End (eye's central vision; one year after the start): 10 (8×) and 8 and 6 and 3
pKa of carboxyl group ([2]; room temperature (25° C.)): 2.17
pKa of guanidinium / N(delta)-protonated diaminomethyleneamino group ([2]; room temperature (25° C.)): 12.48
pKa of protonated 2-amino group ([2]; room temperature (25° C.)): 9.04
MUAMC (cm) End ([3]; MUAMC=MUAC−(π×TSF/10), one year after the start, one value per volunteer): 21.2 cm and 24.7 cm and 28.1 cm and 29.5 cm and 19.9 cm and 27.7 cm and 26.9 cm and 27.2 cm and 24.1 cm and 24.0 cm and 21.6 cm
MUAMC (cm) increase [3, 8]: 1.7 cm and 1.3 cm and 2.0 cm (2×) and 2.1 cm (2×) and 1.1 cm and 2.7 cm and 1.8 cm and 2.8 cm and 2.4 cm
MUAC (cm) End ([3]; right arm, one year after the start, J-Factor 0.5 mg per 10 days orally, one value per volunteer): 27.5 cm and 25.6 cm and 29.0 cm and 31.7 cm and 23.0 cm and 31.5 cm and 30.0 cm and 31.6 cm and 28.2 cm and 29.3 cm and 25.9 cm
MUAMC (cm) increase, sum [3, 9]: 22.0 cm
MUAMC increase, percent of sum [3, 9]: (8.7%)
MUAMC (cm) End, sum ([3]; sum of 11 volunteers, one year after the start (Start sum 252.9)): 274.9 cm
pKa ([4]; pKa of guanidinium / N(delta)-protonated diaminomethyleneamino group): 11.7
pKa ([4]; pKa of protonated 2-amino group): 8.39
change in fatty tissue e.g. in abdomen [5]: decrease in fatty tissue e.g. in abdomen
eye's central vision [5]: improvement in eye's central vision
hair growth [5]: hair growth
muscular hypertrophy [5]: muscular hypertrophy
tone and color of facial skin [5]: improved tone and color of facial skin
TSF (mm) End (fatty tissue; J-Factor 0.5 mg per 10 days orally, End = one year after the start, one value per volunteer (11)): 20 mm and 3 mm (2×) and 7 mm and 10 mm (2×) and 12 mm and 14 mm and 13 mm (2×) and 17 mm
TSF (mm) Decrease (fatty tissue; Start to End (one year), J-Factor 0.5 mg per 10 days orally, one value per volunteer): 18 mm and 3 mm and 4 mm (2×) and 6 mm and 5 mm (2×) and 7 mm (3×) and 19 mm
TSF (mm) Decrease, sum (fatty tissue; [9]): 85 mm
TSF Decrease, percent of sum (fatty tissue; [9]): (41.7%)
TSF (mm) End, sum (fatty tissue; sum of 11 volunteers, one year after the start (Start sum 207)): 122 mm
complications such as joint swelling, carpal tunnel syndrome or joint pain ([6]; in the 11 volunteers): invention showed no complications
antigenicity ([6]; synthetic J-Factor): Non-antigenic
diabetogenicity ([6]; synthetic J-Factor): Non-diabetogenic
IGF-1 mRNA increase (IGF-1mRNA; [8]): yes
IGF-1 production (IGF-1mRNA; conclusion from one-year trial with ex-vivo synthesized J-Factor): stimulated IGF-1 production
IGF-1 mRNA (copy/mg) End (IGF-1mRNA; fatty tissue at mid-back of mid-upper arm, one year after the start, one value per volunteer): 1.8 × 10^7 copy/mg and 7.7 × 10^7 copy/mg and 1.2 × 10^10 copy/mg and 9.2 × 10^6 copy/mg and 7.2 × 10^8 copy/mg and 6.0 × 10^8 copy/mg and 2.1 × 10^9 copy/mg and 1.0 × 10^10 copy/mg and 5.2 × 10^7 copy/mg and 6.3 × 10^6 copy/mg and 1.1 × 10^9 copy/mg

N=C(N)NCCCC(N)C(=O)O [N(omega)′-protonated L-arginine]
pKa of guanidinium / N(delta)-protonated diaminomethyleneamino group ([2]; room temperature (25° C.)): 12.48
physical changes during the second year ([7]; after withdrawal of J-Factor, volunteers not aware): the physical changes would return
IGF-1 production ([7]; conclusion from second trial): don't stimulated IGF-1 production
pKa ([4]; pKa of N(omega)′-protonated guanidino group): 8.3

NC(N)=O [protonated urea]
pKa ([2]; 25° C., protonated urea): 0.18
